We go through five compounds from US20250114374A1, “BCL-2 INHIBITORS” (Newave Pharmaceutical Inc., priority 2021, published 2025).

For this assay, the system named is RS4; 11 with G101V mutation. The experiment in a line: In vitro anti-proliferation assay (ATPlite luminescence) in BCL-2-dependent ALL cell line RS4;11 with G101V mutation. As to conditions: read-out: RS411-G101V IC50. It is filed as cell-based. The procedure: Cell antiproliferation was assayed by PerkinElmer ATPlite™ Luminescence Assay System. Briefly, the various test cancer cell lines were plated at a density of about 1×10^4 cells per well in Costar 96-well plates, and were incubated with different concentrations of compounds for about 72 hours in medium supplemented with 10% FBS. One lyophilized substrate solution vial was then reconstituted by adding 5 mL of substrate buffer solution, and was agitated gently until the solution was homogeneous. About 50 μL of mammalian cell lysis solution was added to 100 μL of cell suspension per well of a microplate, and the plate was shaken for about five minutes in an orbital shaker at ˜700 rpm. This procedure was used to lyse the cells and to stabilize the ATP. Next, 50 μL substrate solution was added to the wells and microplate was shaken for five minutes in an orbital shaker at ˜700 rpm. Finally, the luminescence was measured by a PerkinElmer TopCount® Microplate Scintillation Counter. Such assays, carried out with a range of doses of test compounds, allowed the determination of the cellular anti-antiproliferative IC50 of the compounds of the present invention.
The following table lists the IC50 values of another study for certain compounds of the invention.

Where [1] appears, read: cellular anti-proliferative IC50, about 72 hours, medium with 10% FBS, ATPlite.

Read-outs that look alike come from different tables or passages of the source.

Usually IC50 stands for the concentration at which inhibition is half-maximal. For `CC(C)Oc1ccccc1[C@@H]1CN(Cc2ccc(C(C)(C)C)nc2)CCN1C1CC2(CCN(c3ccc(C(=O)NS(=O)(=O)c4cc5c(c([N+](=O)[O-])c4)N[C@H](C4CCOCC4)CO5)c(N4c5cc6cc[nH]c6nc5O[C@H]5COCC[C@@H]54)c3)CC2)C1` [Example 256, 4-(2-((R)-4-((6-(tert-butyl)pyridin-3-yl)methyl)-2-(2-isopropoxyphenyl)piperazin-1-yl)-7-azaspiro[3.5]nonan-7-yl)-N-(((R)-5-nitro-3-(tetrahydro-2H-pyran-4-yl)-3,4-dihydro-2H-benzo[b][1,4]oxazin-7-yl)sulfonyl)-2-((5aS,9aR)-6,7,9,9a-tetrahydro-1H-pyrano[3,4-b]pyrrolo[3′,2′:5,6]pyrido[3,2-e][1,4]oxazin-5(5aH)-yl)benzamide], the half-maximal inhibitory concentration (IC50) (Homo sapiens, RS4-11, 72 h) came out at 11.8 nM.
With `COc1cc(CN2CCN(C3CC4(CCN(c5ccc(C(=O)NS(=O)(=O)c6cc7c(c([N+](=O)[O-])c6)N[C@H](C6CCOCC6)CO7)c(N6c7cc8cc[nH]c8nc7O[C@H]7COCC[C@@H]76)c5)CC4)C3)[C@H](c3ccccc3OC(C)C)C2)cnc1N1CCOC[C@@H]1C` [Example 169, 2-[(3R,8S)-2,5-dioxa-9,15,17-triazatetracyclo[8.7.0.0^{3,8}.0^{12,16}]heptadeca-1(10),11,13,16-tetraen-9-yl]-4-{2-[(2R)-2-(2-isopropoxyphenyl)-4-({5-methoxy-6-[(3S)-3-methylmorpholin-4-yl]pyridin-3-yl}methyl)piperazin-1-yl]-7-azaspiro[3.5]nonan-7-yl}-N-[(3R)-5-nitro-3-(oxan-4-yl)-3,4-dihydro-2H-1,4-benzoxazin-7-ylsulfonyl]benzamide], the half-maximal inhibitory concentration (IC50) under setting [1] was 3.82 nM.
For the compound `CC(C)Oc1ccccc1[C@@H]1CN(Cc2ccc(C3CC3)nc2)CCN1C1CC2(CCN(c3ccc(C(=O)NS(=O)(=O)c4cc5c(c([N+](=O)[O-])c4)N[C@H](C4CCOCC4)CO5)c(N4c5cc6cc[nH]c6nc5O[C@H]5COCC[C@@H]54)c3)CC2)C1` [Example 257, 4-(2-((R)-4-((6-cyclopropylpyridin-3-yl)methyl)-2-(2-isopropoxyphenyl)piperazin-1-yl)-7-azaspiro[3.5]nonan-7-yl)-N-(((R)-5-nitro-3-(tetrahydro-2H-pyran-4-yl)-3,4-dihydro-2H-benzo[b][1,4]oxazin-7-yl)sulfonyl)-2-((5aS,9aR)-6,7,9,9a-tetrahydro-1H-pyrano[3,4-b]pyrrolo[3′,2′:5,6]pyrido[3,2-e][1,4]oxazin-5(5aH)-yl)benzamide], the IC50 (Homo sapiens, RS4-11, 72 h) turned out to be 3.9 nM.
On to `COc1ccc(CN2CCN(C3CC4(CCN(c5ccc(C(=O)NS(=O)(=O)c6ccc(NCC7CCC(C)(O)CC7)c([N+](=O)[O-])c6)c(N6c7cc8cc[nH]c8nc7O[C@H]7COCC[C@@H]76)c5)CC4)C3)[C@@H](c3ccccc3OC(C)C)C2)cn1` (stereo partly drawn) [Example 102, 2-[(3R,8S)-2,5-dioxa-9,15,17-triazatetracyclo[8.7.0.0^{3,8}.0^{12,16}]heptadeca-1(10),11,13,16-tetraen-9-yl]-4-{2-[(2S)-2-(2-isopropoxyphenyl)-4-[(6-methoxypyridin-3-yl)methyl]piperazin-1-yl]-7-azaspiro[3.5]nonan-7-yl}-N-[3-nitro-4-({[(1r,4r)-4-hydroxy-4-methylcyclohexyl]methyl}amino)benzenesulfonyl]benzamide], for which the IC50 under setting [1] was determined as 18 nM.
Turning to `CC(C)Oc1ccccc1[C@@H]1CN([C@H]2CCOc3nc(N4CCOC[C@@H]4C)c(F)cc32)CCN1C1CC2(CCN(c3ccc(C(=O)NS(=O)(=O)c4cc5c(c([N+](=O)[O-])c4)N[C@H](C4CCOCC4)CO5)c(N4c5cc6cc[nH]c6nc5O[C@H]5COCC[C@@H]54)c3)CC2)C1` [Example 218, 4-(2-((R)-4-((S)-6-fluoro-7-((S)-3-methylmorpholino)-3,4-dihydro-2H-pyrano[2,3-b]pyridin-4-yl)-2-(2-isopropoxyphenyl)piperazin-1-yl)-7-azaspiro[3.5]nonan-7-yl)-N-(((R)-5-nitro-3-(tetrahydro-2H-pyran-4-yl)-3,4-dihydro-2H-benzo[b][1,4]oxazin-7-yl)sulfonyl)-2-((5aS,9aR)-6,7,9,9a-tetrahydro-1H-pyrano[3,4-b]pyrrolo[3′,2′:5,6]pyrido[3,2-e][1,4]oxazin-5(5aH)-yl)benzamide], the 50% inhibitory concentration (IC50) (Homo sapiens, RS4-11, 72 h) came to 121 nM.
